# Measurements reported in the supplement of paper PMC10307832.
# Legend:
# Assay in all cases: relative viability (nuclei count vs DMSO), 5 days (fraction); higher = more cells survive
# VX-702 + Luminespib = compound: NC(=O)c1ccc(N(C(N)=O)c2c(F)cccc2F)nc1-c1ccc(F)cc1F [VX-702] + CCNC(=O)c1noc(-c2cc(C(C)C)c(O)cc2O)c1-c1ccc(CN2CCOCC2)cc1 [Luminespib] (partner 0.01 µM)
# How it was run: (§1)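 The day after seeding in 1536-well plates, lung cancer cell lines were treated by pin tool with a single drug, or with a fixed anchor-drug dose together with five library-drug doses (not always all listed) in √10 steps. After 5 days, a combined fix-and-stain solution (final 0.05% Triton X-100, 1% formaldehyde, 1 ug/ml Hoechst) was added. Nuclei counted on 4× images gave relative viability as treated counts over vehicle counts, reported as the median of duplicate plates.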
# VX-702 + Navitoclax = compound: NC(=O)c1ccc(N(C(N)=O)c2c(F)cccc2F)nc1-c1ccc(F)cc1F [VX-702] + CC1(C)CCC(c2ccc(Cl)cc2)=C(CN2CCN(c3ccc(C(=O)NS(=O)(=O)c4ccc(N[C@H](CCN5CCOCC5)CSc5ccccc5)c(S(=O)(=O)C(F)(F)F)c4)cc3)CC2)C1 [Navitoclax] (partner 0.5 µM)
# How it was run: as §1
# Dabrafenib + Crizotinib = compound: CC(C)(C)c1nc(-c2cccc(NS(=O)(=O)c3c(F)cccc3F)c2F)c(-c2ccnc(N)n2)s1 [Dabrafenib] + C[C@@H](Oc1cc(-c2cnn(C3CCNCC3)c2)cnc1N)c1c(Cl)ccc(F)c1Cl [Crizotinib] (partner 1 µM)
# How it was run: as §1
# VX-702 + Dasatinib = compound: NC(=O)c1ccc(N(C(N)=O)c2c(F)cccc2F)nc1-c1ccc(F)cc1F [VX-702] + Cc1nc(Nc2ncc(C(=O)Nc3c(C)cccc3Cl)s2)cc(N2CCN(CCO)CC2)n1 [Dasatinib] (partner 0.075 µM)
# How it was run: as §1
Cell Line,relative viability (VX-702 + Luminespib; first compound 0.02 µM),relative viability (VX-702 + Luminespib; first compound 0.2 µM),relative viability (VX-702 + Luminespib; first compound 0.6325 µM),relative viability (VX-702 + Luminespib; first compound 2 µM),relative viability (VX-702 + Navitoclax; first compound 0.02 µM),relative viability (VX-702 + Navitoclax; first compound 0.2 µM),relative viability (VX-702 + Navitoclax; first compound 0.6325 µM),relative viability (VX-702 + Navitoclax; first compound 2 µM),relative viability (Dabrafenib + Crizotinib; first compound 0.009487 µM),relative viability (Dabrafenib + Crizotinib; first compound 0.03 µM),relative viability (Dabrafenib + Crizotinib; first compound 0.09487 µM),relative viability (Dabrafenib + Crizotinib; first compound 0.3 µM),relative viability (VX-702 + Dasatinib; first compound 0.02 µM),relative viability (VX-702 + Dasatinib; first compound 0.2 µM),relative viability (VX-702 + Dasatinib; first compound 0.6325 µM),relative viability (VX-702 + Dasatinib; first compound 2 µM),relative viability (Dabrafenib + Crizotinib; first compound 0.003 µM)
NCI-H647,0.216,0.478,0.143,0.17,1.1,1.02,1.02,1.23,1.05,1.04,0.976,1.04,0.151,0.171,0.211,0.246,–
LU99A,0.27,0.204,0.267,0.189,0.857,0.878,0.813,0.698,0.525,0.466,0.562,0.484,0.427,0.415,0.522,0.402,0.585
BEN,0.374,0.221,0.49,0.331,0.0513,0.104,0.0606,0.0662,0.985,–,0.749,1.09,0.337,0.255,0.317,0.304,–
EKVX,0.899,0.822,0.878,0.942,0.96,0.932,0.882,0.986,1.12,0.783,0.702,1.01,0.62,0.491,0.527,0.436,0.875
SK-LU-1,0.211,0.177,0.2,0.207,0.7,0.757,0.66,1.32,0.989,0.769,0.778,0.891,0.222,0.177,0.196,0.206,0.742
COR-L 105,0.688,0.715,0.78,0.91,0.82,0.61,0.851,1.08,0.987,0.67,0.719,0.851,0.315,0.402,0.313,0.3,0.843
NCI-H2170,0.413,0.638,0.52,0.804,0.625,0.372,0.665,0.607,1.24,0.96,1.02,1.27,0.532,0.654,0.544,0.74,1.28
SW 1573,0.215,0.138,0.261,0.232,0.938,0.809,0.831,0.909,0.94,0.697,0.755,0.782,0.566,0.455,0.427,0.426,0.802
NCI-H2087,0.162,0.141,0.169,0.138,0.975,0.838,0.92,1.05,0.788,0.715,0.736,0.675,0.953,0.856,0.959,0.967,0.821
NCI-H1975,0.198,0.275,0.233,0.246,1.09,1.06,1.08,1.23,0.968,0.881,0.938,0.87,0.365,0.344,0.402,0.382,0.967
HCC-15,0.26,0.295,0.288,0.349,0.691,0.648,0.656,0.699,0.881,0.832,0.75,0.827,0.667,0.501,0.602,0.639,0.906
HOP-62,0.926,0.899,0.916,0.962,1.28,0.848,1.03,1.15,0.807,1.05,0.913,0.805,0.741,0.702,0.674,0.735,–
NCI-H1792,0.331,0.355,0.376,0.523,0.718,0.621,0.695,0.753,0.974,0.891,0.833,0.873,0.556,0.781,0.714,0.714,–
NCI-H2228,0.101,0.144,0.145,0.124,1.29,0.973,0.886,0.952,0.504,0.52,0.495,0.571,0.466,0.499,0.461,0.535,0.457
EMC-BAC-2,1.13,1.13,1.13,1.23,1.19,1.13,1.18,1.24,0.749,0.678,0.672,0.828,0.182,0.331,0.332,0.275,0.859
NCI-H1355,0.72,0.632,0.729,0.76,0.988,0.819,0.902,1.01,1.05,0.927,–,1.03,0.883,0.679,0.683,0.818,–
NCI-H3122,0.0998,0.0746,0.0992,0.0951,1.07,1.05,1.04,1.02,0.272,0.274,0.259,0.361,0.921,0.84,0.752,0.789,0.31
